Experimental data from patent US20100292231A1, “Indazole Compounds for Treating Inflammatory Disorders, Demyelinating Disorders and Cancers” (priority 2007, published 2010).
pEC50: −log10 of the molar value. Where two headings read alike, the source gives them in different places.

Columns and labels:
Experiment in all cases: SelectScreen kinase specificity survey
Format in all cases: biochemical
[1] = molecular target: T1, NTRK2 (TRKB) (Homo sapiens, UniProt Q16620)
T1 construct: purchased Invitrogen (SelectScreen)
Procedure, shortened: (§1)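 Specificity was surveyed across 230 kinases using kinase-matched substrate/optical reporter pairs and 100 micromolar ATP. EC50 comes from a 4-parameter Hill fit of an abridged curve.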

[2] = molecular target: T2, PLK3 (Homo sapiens, UniProt Q9H4B4); details: estimated, abridged dose response curve, read-out: Kinase inhibitory activity EC50
T2 construct: purchased Invitrogen, Inc. (SelectScreen service)
T2 sequence (Q9H4B4 whole entry): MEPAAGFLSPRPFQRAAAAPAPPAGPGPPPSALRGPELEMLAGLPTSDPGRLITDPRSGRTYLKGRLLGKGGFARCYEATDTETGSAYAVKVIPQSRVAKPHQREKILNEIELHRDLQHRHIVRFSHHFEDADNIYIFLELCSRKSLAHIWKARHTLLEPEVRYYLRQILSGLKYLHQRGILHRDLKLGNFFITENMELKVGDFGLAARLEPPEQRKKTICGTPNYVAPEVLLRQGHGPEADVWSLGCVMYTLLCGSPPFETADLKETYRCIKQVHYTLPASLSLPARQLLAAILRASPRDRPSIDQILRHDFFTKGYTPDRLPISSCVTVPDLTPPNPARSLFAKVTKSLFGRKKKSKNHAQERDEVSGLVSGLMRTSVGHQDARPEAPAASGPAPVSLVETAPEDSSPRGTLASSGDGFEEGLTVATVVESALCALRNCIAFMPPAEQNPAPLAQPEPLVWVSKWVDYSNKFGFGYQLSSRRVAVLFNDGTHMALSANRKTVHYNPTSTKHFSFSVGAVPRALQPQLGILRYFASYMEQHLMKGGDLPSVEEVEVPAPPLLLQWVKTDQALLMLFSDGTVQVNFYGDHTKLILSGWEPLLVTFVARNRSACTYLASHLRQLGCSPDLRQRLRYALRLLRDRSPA
Procedure, shortened: as §1

[3] = molecular target: T3, RPS6KA3 (RSK2) (Homo sapiens, UniProt P51812); details: estimated, abridged dose response curve, read-out: Kinase inhibitory activity EC50
T3 construct: purchased Invitrogen, Inc. (SelectScreen platform)
Procedure, shortened: as §1

[4] = molecular target: T4, PDK1 (Homo sapiens, UniProt O15530); details: estimated, abridged dose response curve, read-out: Kinase inhibitory activity EC50
T4 construct: purchased Invitrogen (SelectScreen platform)
Procedure, shortened: as §1

[5] = molecular target: T5, ABL2 (Arg) (Homo sapiens, UniProt P42684); details: estimated, abridged dose response curve, read-out: Kinase inhibitory activity EC50
T5 construct: purchased Invitrogen (SelectScreen platform)
Procedure, shortened: as §1

[6] = molecular target: T6, AXL (Homo sapiens, UniProt P30530); details: estimated, abridged dose response curve, read-out: Kinase inhibitory activity EC50
T6 construct: purchased Invitrogen (SelectScreen service)
Procedure, shortened: as §1

[7] = molecular target: T7, SGK (SGK1) (Homo sapiens, UniProt O00141); details: estimated, abridged dose response curve, read-out: Kinase inhibitory activity EC50
T7 construct: purchased Invitrogen, Inc. (SelectScreen platform)
Procedure, shortened: as §1

[8] = molecular target: T8, MST1R (RON) (Homo sapiens, UniProt Q04912); details: estimated, abridged dose response curve, read-out: Kinase inhibitory activity EC50
T8 construct: purchased Invitrogen (SelectScreen platform)
T8 sequence (Q04912 25-1400): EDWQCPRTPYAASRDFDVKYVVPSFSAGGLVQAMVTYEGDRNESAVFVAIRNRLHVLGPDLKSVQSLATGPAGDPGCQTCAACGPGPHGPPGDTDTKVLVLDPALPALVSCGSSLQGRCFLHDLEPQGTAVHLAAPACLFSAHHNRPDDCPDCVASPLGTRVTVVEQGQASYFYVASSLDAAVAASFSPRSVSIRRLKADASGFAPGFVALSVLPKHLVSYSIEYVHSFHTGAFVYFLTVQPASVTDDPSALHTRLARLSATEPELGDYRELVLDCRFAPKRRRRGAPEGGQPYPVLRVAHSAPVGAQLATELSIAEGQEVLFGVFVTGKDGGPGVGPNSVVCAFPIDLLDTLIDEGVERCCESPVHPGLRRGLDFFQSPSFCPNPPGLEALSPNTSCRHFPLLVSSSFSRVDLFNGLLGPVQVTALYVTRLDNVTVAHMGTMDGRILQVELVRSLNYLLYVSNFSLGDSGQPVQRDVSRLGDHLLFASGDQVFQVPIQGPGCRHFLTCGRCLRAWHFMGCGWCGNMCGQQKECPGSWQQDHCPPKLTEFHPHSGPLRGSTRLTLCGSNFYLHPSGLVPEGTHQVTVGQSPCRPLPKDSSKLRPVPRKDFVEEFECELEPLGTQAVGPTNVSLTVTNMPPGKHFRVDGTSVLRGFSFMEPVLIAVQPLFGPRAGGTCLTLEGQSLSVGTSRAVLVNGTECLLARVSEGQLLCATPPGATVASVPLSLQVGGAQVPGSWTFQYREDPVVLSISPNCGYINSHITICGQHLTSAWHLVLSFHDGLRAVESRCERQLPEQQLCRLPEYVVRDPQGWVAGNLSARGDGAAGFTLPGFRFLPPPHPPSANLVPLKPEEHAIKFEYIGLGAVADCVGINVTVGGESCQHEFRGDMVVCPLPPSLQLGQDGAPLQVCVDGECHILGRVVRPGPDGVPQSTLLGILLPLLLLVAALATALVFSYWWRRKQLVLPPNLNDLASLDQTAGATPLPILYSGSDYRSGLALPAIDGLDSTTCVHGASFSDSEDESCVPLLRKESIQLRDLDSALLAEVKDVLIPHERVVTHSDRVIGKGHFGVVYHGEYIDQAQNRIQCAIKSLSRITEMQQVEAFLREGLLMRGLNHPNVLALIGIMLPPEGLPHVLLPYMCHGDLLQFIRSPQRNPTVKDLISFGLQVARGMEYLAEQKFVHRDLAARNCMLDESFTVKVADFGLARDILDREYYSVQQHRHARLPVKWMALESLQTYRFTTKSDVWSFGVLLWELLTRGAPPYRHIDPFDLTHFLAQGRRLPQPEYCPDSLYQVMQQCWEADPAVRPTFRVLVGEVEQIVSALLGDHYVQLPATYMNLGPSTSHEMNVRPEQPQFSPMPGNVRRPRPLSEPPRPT
Procedure, shortened: as §1

[9] = molecular target: T9, EPHA8 (Homo sapiens, UniProt P29322); details: estimated, abridged dose response curve, read-out: Kinase inhibitory activity EC50
T9 construct: purchased Invitrogen (SelectScreen service)
T9 sequence (P29322 28-1005): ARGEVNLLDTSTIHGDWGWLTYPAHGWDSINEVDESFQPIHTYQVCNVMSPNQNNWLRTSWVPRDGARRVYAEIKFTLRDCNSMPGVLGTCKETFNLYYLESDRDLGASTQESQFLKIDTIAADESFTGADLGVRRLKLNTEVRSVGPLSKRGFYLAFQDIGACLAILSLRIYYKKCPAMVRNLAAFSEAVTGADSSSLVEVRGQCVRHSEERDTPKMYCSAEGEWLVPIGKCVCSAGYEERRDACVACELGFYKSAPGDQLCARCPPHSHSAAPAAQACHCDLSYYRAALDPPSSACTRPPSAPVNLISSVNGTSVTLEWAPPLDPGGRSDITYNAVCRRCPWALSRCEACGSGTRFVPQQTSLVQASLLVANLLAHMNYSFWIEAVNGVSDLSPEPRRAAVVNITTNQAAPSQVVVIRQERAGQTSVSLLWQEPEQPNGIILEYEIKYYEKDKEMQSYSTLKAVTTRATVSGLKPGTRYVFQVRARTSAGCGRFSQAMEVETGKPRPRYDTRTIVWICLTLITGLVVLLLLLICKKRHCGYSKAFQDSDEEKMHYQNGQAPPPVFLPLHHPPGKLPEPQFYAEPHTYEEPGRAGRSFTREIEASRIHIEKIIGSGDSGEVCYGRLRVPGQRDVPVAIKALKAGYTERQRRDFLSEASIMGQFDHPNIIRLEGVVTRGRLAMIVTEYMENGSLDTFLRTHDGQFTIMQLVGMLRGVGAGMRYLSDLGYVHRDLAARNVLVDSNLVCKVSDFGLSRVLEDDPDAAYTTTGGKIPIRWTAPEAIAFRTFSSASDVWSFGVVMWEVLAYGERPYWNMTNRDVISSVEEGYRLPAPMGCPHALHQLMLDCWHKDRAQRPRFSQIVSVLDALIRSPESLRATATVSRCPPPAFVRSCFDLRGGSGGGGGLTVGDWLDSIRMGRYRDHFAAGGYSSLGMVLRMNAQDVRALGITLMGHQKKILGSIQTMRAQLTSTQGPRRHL
Procedure, shortened: as §1

[10] = molecular target: T10, ZAP70 (Homo sapiens, UniProt P43403); details: estimated, abridged dose response curve, read-out: Kinase inhibitory activity EC50
T10 construct: purchased Invitrogen (SelectScreen)
T10 sequence (P43403 whole entry): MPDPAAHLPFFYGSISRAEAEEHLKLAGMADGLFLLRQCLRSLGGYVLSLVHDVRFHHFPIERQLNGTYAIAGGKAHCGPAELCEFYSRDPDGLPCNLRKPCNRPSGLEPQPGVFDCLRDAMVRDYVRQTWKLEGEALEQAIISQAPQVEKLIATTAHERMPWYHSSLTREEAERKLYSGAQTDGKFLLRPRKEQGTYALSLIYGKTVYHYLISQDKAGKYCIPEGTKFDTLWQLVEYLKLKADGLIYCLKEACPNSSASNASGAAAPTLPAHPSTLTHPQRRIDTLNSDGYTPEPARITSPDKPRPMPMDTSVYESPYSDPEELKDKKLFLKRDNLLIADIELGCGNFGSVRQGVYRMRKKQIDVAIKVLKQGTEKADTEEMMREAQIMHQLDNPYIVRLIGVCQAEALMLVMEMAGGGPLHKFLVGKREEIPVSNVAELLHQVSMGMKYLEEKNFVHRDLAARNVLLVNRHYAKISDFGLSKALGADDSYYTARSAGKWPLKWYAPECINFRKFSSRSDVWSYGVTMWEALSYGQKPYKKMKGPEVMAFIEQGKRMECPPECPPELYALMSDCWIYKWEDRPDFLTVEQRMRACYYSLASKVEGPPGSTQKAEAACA
Procedure, shortened: as §1

[11] = molecular target: T11, CDK5/p25 (Homo sapiens, UniProt Q00535); details: estimated, abridged dose response curve, read-out: Kinase inhibitory activity EC50
T11 construct: purchased Invitrogen (SelectScreen platform)
Procedure, shortened: as §1

[12] = molecular target: T12, CDK2/cyclin A (Homo sapiens, UniProt P24941); details: estimated, abridged dose response curve, read-out: Kinase inhibitory activity EC50
T12 construct: purchased Invitrogen (SelectScreen platform)
Procedure, shortened: as §1

[13] = molecular target: T13, BMX (Homo sapiens, UniProt P51813); details: estimated, abridged dose response curve, read-out: Kinase inhibitory activity EC50
T13 construct: purchased Invitrogen (SelectScreen)
Procedure, shortened: as §1

[14] = molecular target: T14, ROS1 (ROS) (Homo sapiens, UniProt P08922); details: estimated, abridged dose response curve, read-out: Kinase inhibitory activity EC50
T14 construct: purchased Invitrogen (SelectScreen)
Procedure, shortened: as §1

[15] = molecular target: T15, JAK2 JH1 JH2 (Homo sapiens, UniProt O60674); details: estimated, abridged dose response curve, read-out: Kinase inhibitory activity EC50
T15 construct: JAK2 JH1 JH2; purchased Invitrogen (SelectScreen platform)
T15 sequence (O60674 532-1132 limits assumed): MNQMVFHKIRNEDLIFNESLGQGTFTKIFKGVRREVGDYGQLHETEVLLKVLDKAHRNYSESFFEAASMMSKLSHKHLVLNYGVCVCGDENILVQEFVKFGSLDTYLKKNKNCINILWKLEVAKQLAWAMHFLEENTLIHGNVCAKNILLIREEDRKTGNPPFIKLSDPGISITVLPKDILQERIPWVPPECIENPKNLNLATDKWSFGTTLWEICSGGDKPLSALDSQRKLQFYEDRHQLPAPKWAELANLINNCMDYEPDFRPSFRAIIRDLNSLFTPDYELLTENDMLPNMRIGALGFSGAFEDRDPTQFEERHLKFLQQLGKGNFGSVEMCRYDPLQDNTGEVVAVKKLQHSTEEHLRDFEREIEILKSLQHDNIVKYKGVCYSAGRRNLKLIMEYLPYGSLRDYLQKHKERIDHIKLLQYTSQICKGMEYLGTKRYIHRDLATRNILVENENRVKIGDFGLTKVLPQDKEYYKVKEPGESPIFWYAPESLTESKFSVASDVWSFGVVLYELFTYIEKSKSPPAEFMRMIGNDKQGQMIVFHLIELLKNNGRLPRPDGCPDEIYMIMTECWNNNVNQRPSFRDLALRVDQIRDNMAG
Procedure, shortened: as §1

[16] = molecular target: T16, CSNK2A1 (CK2 alpha 1) (Homo sapiens, UniProt P68400); details: estimated, abridged dose response curve, read-out: Kinase inhibitory activity EC50
T16 construct: purchased Invitrogen, Inc. (SelectScreen service)
Procedure, shortened: as §1

[17] = molecular target: T17, DAPK3 (ZIPK) (Homo sapiens, UniProt O43293); details: estimated, abridged dose response curve, read-out: Kinase inhibitory activity EC50
T17 construct: purchased Invitrogen, Inc. (SelectScreen platform)
Procedure, shortened: as §1

[18] = molecular target: T18, MAPK11 (p38 beta) (Homo sapiens, UniProt Q15759); details: estimated, abridged dose response curve, read-out: Kinase inhibitory activity EC50
T18 construct: purchased Invitrogen (SelectScreen platform)
T18 sequence (Q15759 whole entry): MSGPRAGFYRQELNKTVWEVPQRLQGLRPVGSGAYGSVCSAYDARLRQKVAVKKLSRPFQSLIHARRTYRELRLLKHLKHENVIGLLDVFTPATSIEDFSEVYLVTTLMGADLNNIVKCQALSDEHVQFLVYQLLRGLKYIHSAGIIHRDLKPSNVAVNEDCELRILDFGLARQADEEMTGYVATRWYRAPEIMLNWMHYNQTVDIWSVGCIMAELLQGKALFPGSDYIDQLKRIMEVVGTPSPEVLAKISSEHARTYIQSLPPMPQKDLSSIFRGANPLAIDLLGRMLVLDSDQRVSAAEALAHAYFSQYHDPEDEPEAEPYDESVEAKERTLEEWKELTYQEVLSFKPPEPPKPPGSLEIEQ
Procedure, shortened: as §1

[19] = molecular target: T19, CLK2 (Homo sapiens, UniProt P49760); details: estimated, abridged dose response curve, read-out: Kinase inhibitory activity EC50
T19 construct: purchased Invitrogen (SelectScreen platform)
Procedure, shortened: as §1

[20] = molecular target: T20, KIT T670I (Homo sapiens, UniProt P10721, T670I); details: estimated, abridged dose response curve, read-out: Kinase inhibitory activity EC50
T20 construct: purchased Invitrogen (SelectScreen platform)
Procedure, shortened: as §1

[21] = molecular target: T21, ACVR1B (ALK4) (Homo sapiens, UniProt P36896); details: estimated, abridged dose response curve, read-out: Kinase inhibitory activity EC50
T21 construct: purchased Invitrogen, Inc. (SelectScreen platform)
T21 sequence (P36896 24-505): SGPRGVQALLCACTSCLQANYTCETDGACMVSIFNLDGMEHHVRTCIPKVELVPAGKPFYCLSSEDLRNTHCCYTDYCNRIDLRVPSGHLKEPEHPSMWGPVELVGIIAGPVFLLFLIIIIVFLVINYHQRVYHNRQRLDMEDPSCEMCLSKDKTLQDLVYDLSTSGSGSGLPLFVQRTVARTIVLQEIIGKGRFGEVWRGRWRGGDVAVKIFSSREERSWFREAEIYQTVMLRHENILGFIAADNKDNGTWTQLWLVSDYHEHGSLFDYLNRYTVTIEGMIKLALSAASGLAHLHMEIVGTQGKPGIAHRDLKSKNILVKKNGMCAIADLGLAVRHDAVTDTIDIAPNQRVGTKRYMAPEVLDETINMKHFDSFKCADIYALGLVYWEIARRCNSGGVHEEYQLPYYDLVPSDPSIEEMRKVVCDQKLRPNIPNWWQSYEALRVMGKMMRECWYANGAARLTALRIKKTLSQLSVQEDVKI
Procedure, shortened: as §1

[22] = molecular target: T22, FGFR4 (Homo sapiens, UniProt P22455); details: estimated, abridged dose response curve, read-out: Kinase inhibitory activity EC50
T22 construct: purchased Invitrogen (SelectScreen platform)
Procedure, shortened: as §1

[23] = molecular target: T23, MAP2K1 (MEK1) (Homo sapiens, UniProt Q02750); details: estimated, abridged dose response curve, read-out: Kinase inhibitory activity EC50
T23 construct: purchased Invitrogen (SelectScreen platform)
Procedure, shortened: as §1

[24] = molecular target: T24, MST4 (Homo sapiens, UniProt Q9P289); details: estimated, abridged dose response curve, read-out: Kinase inhibitory activity EC50
T24 construct: purchased Invitrogen (SelectScreen platform)
Procedure, shortened: as §1

[25] = molecular target: T25, GSK3B (GSK3 beta) (Homo sapiens, UniProt P49841); details: estimated, abridged dose response curve, read-out: Kinase inhibitory activity EC50
T25 construct: purchased Invitrogen (SelectScreen platform)
Procedure, shortened: as §1

[26] = molecular target: T26, ERBB4 (HER4) (Homo sapiens, UniProt Q15303); details: estimated, abridged dose response curve, read-out: Kinase inhibitory activity EC50
T26 construct: purchased Invitrogen (SelectScreen service)
Procedure, shortened: as §1

[27] = molecular target: T27, KIT (Homo sapiens, UniProt P10721); details: estimated, abridged dose response curve, read-out: Kinase inhibitory activity EC50
T27 construct: purchased Invitrogen (SelectScreen platform)
Procedure, shortened: as §1

CN(C)CCCNc1ccc2ncn3c4ccc5[nH]ncc5c4c(=O)c1c23 [Compound (IV)]
pEC50 ([1]; NTRK2 (TRKB), estimated, abridged dose response curve, read-out: Kinase inhibitory activity EC50): 6.11
pEC50 [2]: < 5.30
pEC50 [3]: 5.83
pEC50 [4]: 5.54
pEC50 [5]: 5.54
pEC50 [6]: 5.35
pEC50 [7]: 5.46
pEC50 [8]: < 5.30
pEC50 [9]: 5.38
pEC50 [10]: < 5.30
pEC50 [11]: 5.80
pEC50 [12]: 6.09
pEC50 [13]: 5.49
pEC50 [14]: 5.58
pEC50 [15]: < 5.30
pEC50 [16]: < 5.30
pEC50 [17]: 6.01
pEC50 [18]: < 5.30
pEC50 [19]: 7.26
pEC50 [20]: < 5.30
pEC50 [21]: < 5.30
pEC50 [22]: < 5.30
pEC50 [23]: < 5.30
pEC50 [24]: < 5.30
pEC50 [25]: < 5.30
pEC50 [26]: < 5.30
pEC50 [27]: 5.96

CCN(CC)CCNc1ccc2ncn3c4ccc(O)cc4c(=O)c1c23 [Symadex, 5-(2-(diethylamino)ethylamino)-8-hydroxy-6H-imidazo[4,5,1-de]acridin-6-one, reference compound]
pEC50 [1]: < 5.30
pEC50 [2]: < 5.30
pEC50 [3]: 6.16
pEC50 [4]: < 5.30
pEC50 [5]: 5.49
pEC50 [6]: 5.42
pEC50 [7]: 5.57
pEC50 [8]: < 5.30
pEC50 [9]: 5.48
pEC50 [10]: < 5.30
pEC50 [11]: < 5.30
pEC50 [12]: < 5.30
pEC50 [13]: < 5.30
pEC50 [14]: < 5.30
pEC50 [15]: < 5.30
pEC50 [16]: < 5.30
pEC50 [17]: < 5.30
pEC50 [18]: < 5.30
pEC50 [19]: 6.50
pEC50 [20]: < 5.30
pEC50 [21]: < 5.30
pEC50 [22]: < 5.30
pEC50 [23]: < 5.30
pEC50 [24]: 5.80
pEC50 [25]: < 5.30
pEC50 [26]: < 5.30
pEC50 [27]: 5.65
